Reference: paper PMC4977286 (Frontiers in Pharmacology, 2016)
Where two headings read alike, the source gives them in different places.

Legend:
rat liver microsomes = settings: for TNP-G formation, Liver microsome: rat
UGT1A1 = target: T1, UGT1A1 (Homo sapiens, UniProt P22309)
T1 sequence (P22309 26-533): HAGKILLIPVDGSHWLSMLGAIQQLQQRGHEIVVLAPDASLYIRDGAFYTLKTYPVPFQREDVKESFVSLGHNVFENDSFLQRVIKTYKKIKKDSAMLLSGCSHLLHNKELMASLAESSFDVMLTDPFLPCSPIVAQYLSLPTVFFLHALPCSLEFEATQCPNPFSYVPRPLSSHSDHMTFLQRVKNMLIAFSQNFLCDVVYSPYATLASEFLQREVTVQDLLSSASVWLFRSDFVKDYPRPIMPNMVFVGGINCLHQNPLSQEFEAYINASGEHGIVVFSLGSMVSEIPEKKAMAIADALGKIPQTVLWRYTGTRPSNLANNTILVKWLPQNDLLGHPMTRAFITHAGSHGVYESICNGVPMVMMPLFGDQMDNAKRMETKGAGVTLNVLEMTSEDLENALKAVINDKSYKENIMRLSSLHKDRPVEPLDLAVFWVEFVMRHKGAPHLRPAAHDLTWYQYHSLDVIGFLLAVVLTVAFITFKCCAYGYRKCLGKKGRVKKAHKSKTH

MRP2 [1] = target: MRP2 (Rattus norvegicus, UniProt Q63120); test: Bile clearance of TNP-G in SCRH with MRP2 inhibitors or inducer; settings: for BEI of TNP-G, % of the control cells: TNP-G 20 μM; for BEI of TNP-G, % of the control cells / CLbile, int of TNP-G decreased by: inhibitor 100 μM
MRP2 [2] = target: T2, MRP2 (Homo sapiens, UniProt Q92887); assay type: biochemical; set-up: purchased BD Gentest Co. (Woburn, MA)
[3] = rat, in vivo
P-gp [4] = test system: P-gp
BCRP = target: T3, BCRP (Homo sapiens, UniProt Q9UNQ0)
T3 sequence (Q9UNQ0 1-655): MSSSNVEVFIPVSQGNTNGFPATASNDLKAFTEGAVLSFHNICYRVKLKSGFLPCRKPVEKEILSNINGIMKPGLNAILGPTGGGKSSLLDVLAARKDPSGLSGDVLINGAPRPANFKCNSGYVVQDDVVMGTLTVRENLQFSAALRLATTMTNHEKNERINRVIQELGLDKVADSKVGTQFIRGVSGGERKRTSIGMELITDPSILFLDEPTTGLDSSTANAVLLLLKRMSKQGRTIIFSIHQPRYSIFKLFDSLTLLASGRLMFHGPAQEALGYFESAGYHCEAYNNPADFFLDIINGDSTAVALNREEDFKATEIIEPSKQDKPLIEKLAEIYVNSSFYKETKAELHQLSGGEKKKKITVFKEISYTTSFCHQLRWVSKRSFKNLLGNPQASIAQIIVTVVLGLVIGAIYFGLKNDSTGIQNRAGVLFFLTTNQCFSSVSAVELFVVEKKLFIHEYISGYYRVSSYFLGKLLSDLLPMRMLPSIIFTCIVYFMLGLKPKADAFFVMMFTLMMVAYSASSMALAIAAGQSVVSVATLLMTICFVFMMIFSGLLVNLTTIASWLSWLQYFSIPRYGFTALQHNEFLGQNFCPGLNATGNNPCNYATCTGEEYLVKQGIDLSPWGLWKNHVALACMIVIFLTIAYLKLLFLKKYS

MRP2 [5] = target: T2, MRP2
MDR1 = MDR1 (Homo sapiens, UniProt P08183)
in vivo [6] = settings: mouse, po, 12 mg/kg
[7] = test system: sandwich-cultured rat hepatocytes (SCRH)
P-gp [8] = target: P-gp (Homo sapiens, UniProt P08183)
[9] = cited from earlier work
in vivo [10] = settings: rat
[11] = mouse, in vivo

T2 sequence (Q92887 whole entry): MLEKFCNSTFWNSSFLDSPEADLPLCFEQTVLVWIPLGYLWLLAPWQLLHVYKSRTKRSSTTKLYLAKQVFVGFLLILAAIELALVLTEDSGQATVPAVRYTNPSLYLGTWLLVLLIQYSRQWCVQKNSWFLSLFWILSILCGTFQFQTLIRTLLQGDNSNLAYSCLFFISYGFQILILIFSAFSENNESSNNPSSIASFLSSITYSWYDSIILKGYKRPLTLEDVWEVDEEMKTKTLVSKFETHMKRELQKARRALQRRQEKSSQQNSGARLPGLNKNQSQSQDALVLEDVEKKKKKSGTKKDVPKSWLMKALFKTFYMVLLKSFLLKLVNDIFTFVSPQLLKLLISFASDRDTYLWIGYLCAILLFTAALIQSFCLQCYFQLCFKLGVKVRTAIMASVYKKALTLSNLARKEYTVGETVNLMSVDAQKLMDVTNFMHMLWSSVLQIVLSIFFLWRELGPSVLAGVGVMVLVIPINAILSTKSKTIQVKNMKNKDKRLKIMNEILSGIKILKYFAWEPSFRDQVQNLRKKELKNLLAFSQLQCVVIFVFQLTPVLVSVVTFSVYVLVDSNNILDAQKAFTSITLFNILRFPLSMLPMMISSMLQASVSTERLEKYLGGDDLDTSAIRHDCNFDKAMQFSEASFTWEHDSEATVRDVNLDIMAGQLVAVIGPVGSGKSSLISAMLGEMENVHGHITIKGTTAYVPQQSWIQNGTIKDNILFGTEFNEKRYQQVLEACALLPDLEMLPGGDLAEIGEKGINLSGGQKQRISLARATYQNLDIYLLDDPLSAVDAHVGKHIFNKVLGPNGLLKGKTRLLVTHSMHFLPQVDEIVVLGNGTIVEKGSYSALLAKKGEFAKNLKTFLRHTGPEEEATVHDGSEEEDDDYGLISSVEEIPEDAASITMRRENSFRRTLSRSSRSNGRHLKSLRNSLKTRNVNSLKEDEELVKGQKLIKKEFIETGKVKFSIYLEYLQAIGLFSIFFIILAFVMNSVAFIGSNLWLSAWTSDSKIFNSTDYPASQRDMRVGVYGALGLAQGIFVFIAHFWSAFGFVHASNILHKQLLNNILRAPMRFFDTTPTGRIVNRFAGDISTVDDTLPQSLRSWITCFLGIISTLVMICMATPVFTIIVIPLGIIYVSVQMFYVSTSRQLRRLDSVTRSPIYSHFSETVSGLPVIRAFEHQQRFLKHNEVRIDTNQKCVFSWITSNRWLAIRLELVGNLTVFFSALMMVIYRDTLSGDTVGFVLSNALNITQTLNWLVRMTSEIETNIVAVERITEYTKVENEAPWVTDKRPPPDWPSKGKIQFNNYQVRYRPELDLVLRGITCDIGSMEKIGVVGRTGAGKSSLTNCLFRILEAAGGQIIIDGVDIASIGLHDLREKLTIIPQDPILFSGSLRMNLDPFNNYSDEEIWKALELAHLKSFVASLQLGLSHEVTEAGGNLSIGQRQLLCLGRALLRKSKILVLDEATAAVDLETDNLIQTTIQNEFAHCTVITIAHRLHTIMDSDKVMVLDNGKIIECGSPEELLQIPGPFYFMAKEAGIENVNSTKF
Sequence of MRP2 (Rattus norvegicus, UniProt Q63120) (Q63120 whole entry): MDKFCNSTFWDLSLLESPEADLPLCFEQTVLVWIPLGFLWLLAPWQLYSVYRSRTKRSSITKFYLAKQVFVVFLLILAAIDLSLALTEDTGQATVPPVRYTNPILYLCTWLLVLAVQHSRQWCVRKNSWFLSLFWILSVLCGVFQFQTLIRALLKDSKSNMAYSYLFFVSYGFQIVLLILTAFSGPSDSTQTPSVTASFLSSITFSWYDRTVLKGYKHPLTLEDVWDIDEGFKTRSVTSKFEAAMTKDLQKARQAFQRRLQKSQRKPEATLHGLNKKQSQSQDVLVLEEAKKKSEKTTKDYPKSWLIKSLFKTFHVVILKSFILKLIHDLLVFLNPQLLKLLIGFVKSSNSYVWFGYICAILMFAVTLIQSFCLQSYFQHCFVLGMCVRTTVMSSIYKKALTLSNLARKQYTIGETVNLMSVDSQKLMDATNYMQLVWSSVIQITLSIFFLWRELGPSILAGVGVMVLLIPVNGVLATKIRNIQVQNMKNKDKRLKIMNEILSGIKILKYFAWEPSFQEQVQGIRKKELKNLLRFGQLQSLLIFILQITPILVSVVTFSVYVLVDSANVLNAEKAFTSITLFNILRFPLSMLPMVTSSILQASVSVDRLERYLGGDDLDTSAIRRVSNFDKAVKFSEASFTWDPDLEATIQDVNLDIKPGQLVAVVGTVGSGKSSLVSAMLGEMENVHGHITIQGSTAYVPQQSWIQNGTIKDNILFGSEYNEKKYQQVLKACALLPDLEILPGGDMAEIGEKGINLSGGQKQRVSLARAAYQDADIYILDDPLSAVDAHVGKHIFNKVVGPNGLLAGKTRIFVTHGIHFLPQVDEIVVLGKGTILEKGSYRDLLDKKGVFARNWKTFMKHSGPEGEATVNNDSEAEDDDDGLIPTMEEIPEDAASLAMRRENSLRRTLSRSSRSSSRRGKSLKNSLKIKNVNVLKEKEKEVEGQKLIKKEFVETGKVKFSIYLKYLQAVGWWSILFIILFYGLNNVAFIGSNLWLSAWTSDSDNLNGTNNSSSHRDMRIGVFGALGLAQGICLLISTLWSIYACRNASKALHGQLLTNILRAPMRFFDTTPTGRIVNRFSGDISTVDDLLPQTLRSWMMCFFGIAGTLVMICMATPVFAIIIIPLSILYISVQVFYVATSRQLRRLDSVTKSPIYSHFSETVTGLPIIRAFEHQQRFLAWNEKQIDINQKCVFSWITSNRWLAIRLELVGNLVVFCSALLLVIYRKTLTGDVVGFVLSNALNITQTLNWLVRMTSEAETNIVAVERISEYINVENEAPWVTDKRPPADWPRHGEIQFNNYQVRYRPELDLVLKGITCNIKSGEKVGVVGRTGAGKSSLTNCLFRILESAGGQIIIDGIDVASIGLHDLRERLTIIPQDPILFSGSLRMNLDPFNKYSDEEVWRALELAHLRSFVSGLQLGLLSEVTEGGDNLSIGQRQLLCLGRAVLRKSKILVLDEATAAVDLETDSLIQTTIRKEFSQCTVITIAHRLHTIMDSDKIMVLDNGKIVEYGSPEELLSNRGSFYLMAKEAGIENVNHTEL
Sequence of MDR1 (P08183 whole entry): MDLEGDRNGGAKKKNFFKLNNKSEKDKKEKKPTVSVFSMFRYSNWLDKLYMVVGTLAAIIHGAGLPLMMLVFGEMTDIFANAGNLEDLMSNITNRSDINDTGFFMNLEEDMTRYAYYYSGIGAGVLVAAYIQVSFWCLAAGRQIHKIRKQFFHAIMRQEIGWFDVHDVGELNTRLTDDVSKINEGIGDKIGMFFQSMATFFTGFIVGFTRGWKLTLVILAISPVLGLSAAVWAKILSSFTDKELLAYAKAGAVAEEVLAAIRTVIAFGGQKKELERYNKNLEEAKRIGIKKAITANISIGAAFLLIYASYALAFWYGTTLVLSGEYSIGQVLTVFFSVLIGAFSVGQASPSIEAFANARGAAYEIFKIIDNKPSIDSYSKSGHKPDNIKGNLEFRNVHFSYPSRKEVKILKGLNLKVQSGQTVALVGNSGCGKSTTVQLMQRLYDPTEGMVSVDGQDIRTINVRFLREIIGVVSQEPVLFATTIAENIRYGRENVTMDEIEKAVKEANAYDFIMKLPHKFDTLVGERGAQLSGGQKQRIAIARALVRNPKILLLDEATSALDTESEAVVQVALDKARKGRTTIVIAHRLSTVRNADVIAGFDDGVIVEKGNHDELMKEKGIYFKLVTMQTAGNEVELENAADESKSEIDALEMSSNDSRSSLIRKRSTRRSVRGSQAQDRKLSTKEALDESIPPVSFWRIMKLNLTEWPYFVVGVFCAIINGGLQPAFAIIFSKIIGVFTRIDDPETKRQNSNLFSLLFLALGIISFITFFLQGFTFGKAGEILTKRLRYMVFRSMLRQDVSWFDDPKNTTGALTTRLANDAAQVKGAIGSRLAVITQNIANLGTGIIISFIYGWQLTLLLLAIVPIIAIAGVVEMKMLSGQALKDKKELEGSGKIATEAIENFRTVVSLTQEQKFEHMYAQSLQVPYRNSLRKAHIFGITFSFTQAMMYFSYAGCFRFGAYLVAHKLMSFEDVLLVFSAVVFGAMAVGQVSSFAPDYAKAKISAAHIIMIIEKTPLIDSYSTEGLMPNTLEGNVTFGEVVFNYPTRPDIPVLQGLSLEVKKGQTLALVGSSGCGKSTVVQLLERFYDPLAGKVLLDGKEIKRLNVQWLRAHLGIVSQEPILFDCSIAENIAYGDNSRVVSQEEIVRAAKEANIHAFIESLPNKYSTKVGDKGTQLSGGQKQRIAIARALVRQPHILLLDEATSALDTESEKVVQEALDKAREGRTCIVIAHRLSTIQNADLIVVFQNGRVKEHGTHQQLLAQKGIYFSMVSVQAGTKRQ

C[C@@H]1C[C@H]2[C@@H]3CCC4=CC(=O)C=C[C@]4(C)[C@@]3(F)[C@@H](O)C[C@]2(C)[C@@]1(O)C(=O)CO [Dexamethasone, dexamethasone]
TNP-G formation, Liver microsome (rat liver microsomes): 2219.3 ± 52.8 ng/mL
TNP-G formation, UGT1A1 (UGT1A1): 1542.4 ± 27.9 ng/mL

CN(Cc1cnc2nc(N)nc(N)c2n1)c1ccc(C(=O)N[C@@H](CCC(=O)O)C(=O)O)cc1 [Methotrexate, methotrexate]
BEI of TNP-G, % of the control cells (MRP2 [1]): 20%
CLbile, int of TNP-G decreased by (MRP2 [1]): 74.2%

CCCN(CCC)S(=O)(=O)c1ccc(C(=O)O)cc1 [Probenecid, probenecid]
effect on TNP glucuronidation (rat liver microsomes): no significant effect
TNP-G formation, Liver microsome (rat liver microsomes; 60 min, 100 µM): 2191.5 ± 123.1 ng/mL
Vanadate-sensitive ATPase activities, MRP2 (MRP2 [2]): 5.7 ± 0.2 nmol/min/mg
BEI of TNP-G, % of the control cells (MRP2 [1]): 22.8%
CLbile, int of TNP-G decreased by (MRP2 [1]): 78.1%
TNP-G formation, UGT1A1 (UGT1A1): 1527.5 ± 83.9 ng/mL
24 h biliary excretion rate of TNP-G, % of the control level [3]: 74%

O=c1c(O)c(-c2ccc(O)c(O)c2)oc2cc(O)cc(O)c12 [Quercetin, quercetin]
TNP-G formation, Liver microsome (rat liver microsomes; 60 min, 100 µM): 2170.7 ± 33.6 ng/mL
BEI of TNP, fold compared with the control (P-gp [4]; rat): 2.1 fold
CLbile, int of TNP, fold compared with the control (P-gp [4]; rat): 1.7 fold
TNP-G formation, UGT1A1 (UGT1A1): 1590.8 ± 30.5 ng/mL

O=C(O)c1cc(/N=N/c2ccc(S(=O)(=O)Nc3ccccn3)cc2)ccc1O [Sulfasalazine, sulfasalazine, reference compound]
Vanadate-sensitive ATPase activities, BCRP (BCRP): 32.2 ± 1.3 nmol/min/mg

COC12CCC3(CC1C(C)(O)CCc1cccs1)C1Cc4ccc(OC5OC(C(=O)O)C(O)C(O)C5O)c5c4C3(CCN1CC1CC1)C2O5 (stereo not shown) [TNP-G, thienorphine-3-glucuronide]
intracellular concentration, increase compared with the NC-siRNA group (MRP2 [5]): 2.1 fold
Vanadate-sensitive ATPase activities, MDR1 (MDR1): 4.2 ± 0.8 nmol/min/mg
AUC(0-t) (in vivo [6]; AUC(0-t)): 108 ± 19.6 ng·h/mL
MRT (in vivo [6]; MRT): 5.7 ± 2 h
half-life (in vivo [6]; t1/2): 4.3 ± 1.7 h
CLbile, int From Eq. 2 [7]: 11.2 ± 2.7 mL/min/kg
CLbile,pred (plasma total concentration) relative to measured CLbile,obs [7]: ~1.3 fold
CLbile,pred From Eq. 3 [7]: 8.7 ± 1.7 mL/min/kg
CLbile,pred From Eq. 4 [7]: 0.2 ± 0.01 mL/min/kg
average BEI (biliary excretion index) [7]: 41.4 ± 2.6
intracellular concentration, increase compared with the NC-siRNA group (P-gp [8]): not impacted
fu,p (plasma unbound fraction) [9]: 0.02
Vanadate-sensitive ATPase activities, BCRP (BCRP): 5.8 ± 0.8 nmol/min/mg
dose excreted (in vivo [10]): ≤ 28%
Transporter substrate finding, MRP2 (MRP2 [2]): MRP2 substrate
Vanadate-sensitive ATPase activities, MRP2 (MRP2 [2]): 4.1 ± 0.6 nmol/min/mg
increase in AUC0-t compared to the NC-siRNA group [11]: 1.9 fold
increase in Cmax compared to the NC-siRNA group [11]: 2.7 fold
AUC(0-t) ([11]; po, 12 mg/kg): 202.7 ± 70.7 ng·h/mL
MRT ([11]; po, 12 mg/kg): 6.7 ± 1.7 h
t1/2 ([11]; po, 12 mg/kg): 6.1 ± 1.1 h
CLbile,int of TNP-G (MRP2 [1]; dexamethasone 0 μM (control)): 4.2 ± 0.1 mL/min/kg
CLbile,int of TNP-G (MRP2 [1]; methotrexate 0 μM (control)): 3.1 ± 0.4 mL/min/kg
CLbile,int of TNP-G (MRP2 [1]; probenecid 0 μM (control)): 1.6 ± 0.03 mL/min/kg
CLbile,obs From Eq.5 [3]: 6.9 ± 0.5 mL/min/kg

COc1cc2c(cc1OC)CN(CCc1ccc(NC(=O)c3cc(OC)c(OC)cc3NC(=O)c3cnc4ccccc4c3)cc1)CC2 [Tariquidar, tariquidar]
TNP-G formation, Liver microsome (rat liver microsomes; 60 min, 100 µM): 2154.6 ± 26.9 ng/mL
BEI of TNP, % of the control cells (P-gp [4]): 34.5%
CLbile, int of TNP reduced to (P-gp [4]): 83.1%
TNP-G formation, UGT1A1 (UGT1A1; 60 min, 100 µM): 1533.8 ± 25.4 ng/mL
cumulative bile excretion of TNP, % of the control level [3]: 45%
